Data from PMC5979531, “Structural Requirements of Alkylglyceryl-L-Ascorbic Acid Derivatives for Melanogenesis Inhibitory Activity” (International Journal of Molecular Sciences, 2018).

Columns and labels:
tyrosinase from mushroom = test: Mushroom tyrosinase activity; format: biochemical
Experimental: Tyrosinase activities using L-tyrosine or L-DOPA as a substrate were determined according to the protocols described previously. Briefly, samples, L-tyrosine (2.5 mM, or L-DOPA, 3.0 mM), mushroom tyrosinase (46 units/mL), and phosphate buffer were mixed in a 96-well plate and incubated at 25 °C. (L-tyrosine; 30 min, L-DOPA; 5 min). The absorbance was then measured at 492 nm.

[1] = Cell viability of B16 melanoma 4A5 cells; format: cell-based, murine; conditions: mouse, B16 4A5 cells
Experimental: (§1) The effects on theophylline-stimulated melanogenesis and viability of B16 melanoma 4A5 cells were examined according to previously described protocols. Briefly, murine B16 melanoma 4A5 cells were seeded into 48-well plates in DMEM. After 24 h of culture, a test compound and theophylline (1 mM) were added and incubated for 72 h. The melanin content and cell viability were then measured. IC50 values were determined graphically.

B16 melanoma 4A5 cells = test: Theophylline-stimulated melanogenesis inhibition (melanin content); format: cell-based, murine; conditions: Mus musculus, 72 h; for IC50: theophylline (1 mM)-stimulated B16 melanoma 4A5 cells
Experimental: as §1
Inhibition (%) was calculated using the following formula, where A and B indicate the optical density of the vehicle- and test compound-treated groups, respectively, and C indicates cell viability (%) (see below): Inhibition (%) = [(A − B)/A]/(C/100) × 100.

[2] = theophylline-stimulated B16 4A5 cells

SMILES | Inhibition (%) of mushroom tyrosinase (tyrosinase from mushroom; Substrate: L-DOPA, 10 µM) [%] | Inhibition (%) of mushroom tyrosinase (tyrosinase from mushroom; Substrate: L-DOPA, 30 µM) [%] | Inhibition (%) of mushroom tyrosinase (tyrosinase from mushroom; Substrate: L-Tyrosine, 10 µM) [%] | Inhibition (%) of mushroom tyrosinase (tyrosinase from mushroom; Substrate: L-Tyrosine, 30 µM) [%] | viability at 72 h, 3 µM [1] [%] | viability at 72 h, 10 µM [1] [%] | viability at 72 h, 30 µM [1] [%] | viability at 72 h, 100 µM [1] [%] | inhibition at 3 µM (B16 melanoma 4A5 cells; [2]) [%] | inhibition at 10 µM (B16 melanoma 4A5 cells; [2]) [%] | inhibition at 30 µM (B16 melanoma 4A5 cells; [2]) [%] | inhibition at 100 µM (B16 melanoma 4A5 cells; [2]) [%] | IC50 (B16 melanoma 4A5 cells) [µM] | other results
CCCCCCCCCCCCOC1=C(OCC(O)CO)[C@@H]([C@@H](O)CO)OC1=O (stereo partly shown) [compound 12, 3-O-(2,3-dihydroxypropyl)-2-O-dodecyl-AsA] | −3.1 ± 3.3 | −4.6 ± 2.2 | −0.7 ± 4.5 | −7.1 ± 1.4 | 112 | 104 | 73.3 | 24.6 | 20.4 ± 10.2 | 50 ± 5.7 | 96 ± 2.9 | 97.9 ± 4.2 | 10.6 | –
CCCCCCCCCCCOC1=C(OCC(O)CO)[C@@H]([C@@H](O)CO)OC1=O (stereo partly shown) [compound 11, 3-O-(2,3-dihydroxypropyl)-2-O-undecyl-AsA] | −4.6 ± 1.4 | −5.1 ± 2.2 | 2.9 ± 3.9 | 1.0 ± 2.5 | 106 | 90.8 | 69 | 25.8 | 12.4 ± 3 | 35.4 ± 2.8 | 89.3 ± 1.5 | 100 ± 4.7 | 15.1 | –
CCCCCCCCCCCCOC1=C(OCC(O)CO)C(=O)O[C@@H]1[C@@H](O)CO (stereo partly shown) [compound 26, 2-O-(2,3-dihydroxypropyl)-3-O-dodecyl-AsA] | −6.4 ± 3.1 | −6.6 ± 8.7 | −2.2 ± 6.4 | −0.5 ± 4.3 | 99.8 | 87.3 | 45.5 | 24.3 | 14.1 ± 8.5 | 46 ± 3 | 96.2 ± 2.8 | 89.6 ± 24.4 | 12.1 | –
CCCCCCCCCOC1=C(OCC(O)CO)C(=O)O[C@@H]1[C@@H](O)CO (stereo partly shown) [compound 23, 2-O-(2,3-dihydroxypropyl)-3-O-nonyl-AsA] | – | −4.1 ± 2.2 | – | −5.0 ± 3.1 | 96.6 | 90.6 | 81.2 | 60.7 | -1.3 ± 9.4 | -2.6 ± 8 | 14.9 ± 5.6 | 77.1 ± 2.4 | 72.9 | Inhibition (%) of mushroom tyrosinase (tyrosinase from mushroom; Substrate: L-DOPA, 100 µM): −1.5 ± 2.2%; Inhibition (%) of mushroom tyrosinase (tyrosinase from mushroom; Substrate: L-Tyrosine, 100 µM): −2.6 ± 2.4%
CCCCCCCCCCCCCOC1=C(OCC(O)CO)C(=O)O[C@@H]1[C@@H](O)CO (stereo partly shown) [compound 27, 2-O-(2,3-dihydroxypropyl)-3-O-tridecyl-AsA] | −2.0 ± 3.3 | −3.2 ± 2.7 | −3.3 ± 8.1 | −5.4 ± 1.9 | 105 | 84.3 | 40.2 | 21 | 20.1 ± 5.7 | 44.2 ± 3.9 | 96.6 ± 3 | 113 ± 10.1 | 11.7 | –
CCCCCCCCCCCOC1=C(OCC(O)CO)C(=O)O[C@@H]1[C@@H](O)CO (stereo partly shown) [compound 25, 2-O-(2,3-dihydroxypropyl)-3-O-undecyl-AsA] | −10.2 ± 2.3 | −10.7 ± 3.8 | −8.0 ± 0.6 | −8.7 ± 1.5 | 101 | 85.8 | 53.6 | 24 | -5.1 ± 2.3 | 26.6 ± 3 | 85 ± 3.8 | 101 ± 10.1 | 18.1 | –
CCCCCCCCOC1=C(OCC(O)CO)C(=O)O[C@@H]1[C@@H](O)CO (stereo partly shown) [compound 22, 2-O-(2,3-dihydroxypropyl)-3-O-octyl-AsA] | – | −13.1 ± 3.3 | – | −11.5 ± 1.6 | 98.8 | 99.3 | 91.6 | 83 | -10.4 ± 6 | 1 ± 7 | 2.3 ± 5.9 | 34.8 ± 8.2 | > 100 | Inhibition (%) of mushroom tyrosinase (tyrosinase from mushroom; Substrate: L-DOPA, 100 µM): −4.5 ± 2.0%; Inhibition (%) of mushroom tyrosinase (tyrosinase from mushroom; Substrate: L-Tyrosine, 100 µM): −14.4 ± 1.8%
CCCCCCCCCCCCCOC1=C(OCC(O)CO)[C@@H]([C@@H](O)CO)OC1=O (stereo partly shown) [compound 13, 3-O-(2,3-dihydroxypropyl)-2-O-tridecyl-AsA] | −4.7 ± 5.0 | −4.4 ± 1.8 | −4.7 ± 2.9 | −7.1 ± 1.7 | 96.3 | 87.2 | 63.7 | 23.5 | 0.1 ± 8.6 | 46 ± 7.9 | 97.1 ± 2.3 | 108 ± 9.1 | 11.3 | –
CCCCCCCCCCOC1=C(OCC(O)CO)[C@@H]([C@@H](O)CO)OC1=O (stereo partly shown) [compound 10, 2-O-decyl-3-O-(2,3-dihydroxypropyl)-AsA] | 0.4 ± 1.1 | 2.4 ± 2.9 | 1.3 ± 3.1 | 0.4 ± 1.7 | 98.6 | 85.9 | 73.5 | 27.9 | 3.7 ± 7.8 | 39.2 ± 4.1 | 78.1 ± 4.8 | 98 ± 3.7 | 13 | –
CCCCCCCOC1=C(OCC(O)CO)[C@@H]([C@@H](O)CO)OC1=O (stereo partly shown) [compound 7, 3-O-(2,3-dihydroxypropyl)-2-O-heptyl-AsA] | – | −0.7 ± 3.1 | – | −1.7 ± 4.0 | 101 | 95.4 | 91.9 | 79.7 | -4.2 ± 6.3 | 3.4 ± 5.2 | 20 ± 6.4 | 52.2 ± 5 | 89.1 | Inhibition (%) of mushroom tyrosinase (tyrosinase from mushroom; Substrate: L-DOPA, 100 µM): 1.1 ± 4.8%; Inhibition (%) of mushroom tyrosinase (tyrosinase from mushroom; Substrate: L-Tyrosine, 100 µM): 1.0 ± 2.4%
OC[C@H]1O[C@@H](Oc2ccc(O)cc2)[C@H](O)[C@@H](O)[C@@H]1O [Arbutin, reference compound] | – | – | – | – | – | – | – | 92.2 | – | – | – | 32.2 ± 3.4 | 830 | viability at 72 h, 300 µM ([1]; 300 µM): 96%; viability at 72 h, 1000 µM ([1]; 1000 µM): 96.2%; viability at 72 h, 3000 µM ([1]; 3000 µM): 106%; inhibition at 300 µM (B16 melanoma 4A5 cells; 300 µM, theophylline-stimulated B16 4A5 cells): 22.3 ± 4.3%; inhibition at 1000 µM (B16 melanoma 4A5 cells; 1000 µM, theophylline-stimulated B16 4A5 cells): 63 ± 2.3%; inhibition at 3000 µM (B16 melanoma 4A5 cells; 3000 µM, theophylline-stimulated B16 4A5 cells): 94 ± 2.8%
